One data set can be described thus: Solubility in water. The data set is classed as physicochemical. An excerpt:
Ultra-fine L-carnitine fumarate so prepared has the following analytical properties: […]

Data set [1] in a line: Bioavailability / human plasma levels after dosing. Conditions: in vivo. An excerpt: Transformers may therefore accomplish the target dosage using a reduced active bolus, an efficiency which translates to cost savings. In principle, consumers purchase nutritionals on a pure weight volume (W/V) basis.
A short description of data set [2]: Oral toxicity (LD50) in rats. Conditions: rat, in vivo.

Molecules are shown by their SMILES.

In general, LD50 refers to the dose at which mortality reaches 50%. A high value points to a less toxic substance.

Turning to `C[N+](C)(C)C[C@H](O)CC(=O)[O-].O=C(O)/C=C/C(=O)O` [Ultra-fine L-carnitine fumarate, L-carnitine fumarate], the Solubility in “Solubility in water” worked out at 5 g/100 ml in water. Moreover, in data set [1] (human), the “bioavailability through the mitochondrial pathway” value is listed as “increased bioavailability”. For the same compound, in data set [1], the human plasma levels entry was “equal those of conventionally sized L-carnitine tartrate”. Further, the LD50 in data set [2] is more than 8000 mg/kg.

Values taken from US7303765B2, “Ultrafine-L-carnitine, methods of preparing the same, compositions containing the same, and methods of using the same” (Sigma-Tau HealthScience S.p.A., priority 1999, dated 2007).
